Here are results for five compounds from patent publication US20090123954A1, “MULTICOLOR BIOLUMINESCENT VISUALIZATION PROBE SET, OR SINGLE-MOLECULE-FORMAT MULTICOLOR BIOLUMINESCENT VISUALIZATION PROBE” (National Institute of Advanced Industrial Science and …, priority 2007, published 2009).

Read-outs that look alike come from different tables or passages of the source. Ends that are not written are not given here.

Test [1] has as its target T1, ER LBD (Homo sapiens, UniProt P03372).
T1 sequence (P03372 305-550): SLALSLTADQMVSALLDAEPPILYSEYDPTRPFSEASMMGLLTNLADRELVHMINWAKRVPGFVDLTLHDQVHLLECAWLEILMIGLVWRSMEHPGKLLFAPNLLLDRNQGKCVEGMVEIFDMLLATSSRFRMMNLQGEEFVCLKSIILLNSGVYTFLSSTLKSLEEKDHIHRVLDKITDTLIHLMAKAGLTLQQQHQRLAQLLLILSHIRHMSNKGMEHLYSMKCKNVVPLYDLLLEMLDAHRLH
The test is described as follows: Ligand sensitivity of various cell lines carrying pSimer-R2 (red luminescence). As to conditions: pSimer-R2 in HeLa, COS-7, NIH 3T3 and MCF-7 cells; 20 minutes stimulation; each cell line.

The target in test [2] is T2, ER LBD (Homo sapiens, UniProt P03372).
T2 sequence (P03372 305-550) 1: T1 sequence (P03372 305-550)
T2 sequence (P03372 305-550) 2: T1 sequence (P03372 305-550)
Nature of the test: Estrogenicity score in COS-7 cells co-expressing pSimer-R2 and pSimer-G6.

Test [3] has as its target T1, ER LBD.
Test [4] has as its target T2, ER LBD. Nature of the test: Estrogenicity score in COS-7 cells cotransfected with pSimer-R2 and pSimer-G4. The test is classed as cell-based. Details: cDNAs of ER LBD (305-550 AA) and phosphorylation-recognition domain of Src (SH2) were amplified by PCR; expressed in transfected cells; host or cells: COS-7. How it is done:
A COS-7 cells carrying both pSimer-R2 and pSimer-G4 were simulated with ligands for 20 minutes, and spectrum of luminescence emitted as a result with all wavelengths was observed (FIG. 11). […] The term genomic signal used herein refers to an intracellular signal involved in conventional protein expression in the nucleus. On the other hand, the term non-genomic signal means an intracellular signal not accompanying conventional protein expression. Typically, this is the general classification of intracellular signal transductions.
Further, from ratio of luminescence intensities between red signal (610 nm) and green signal (540 nm) induced by a ligand, it is possible to show numerically whether the measured ligand tends to genomic activity (also referred to as agonistic activity herein) or nongenomic activity (also referred to as antagonistic activity herein).

For test [5], the target named is T1, ER LBD. This is another data set of the same source.
The target of test [6] is T1, ER LBD. This is another data set of the same source.
The subject of test [7] is COS-7 cells. Nature of the test: Optimal LXXLL motif: ligand sensitivity of COS-7 cells carrying pSimer-G plasmids. The format is cell-based, African Green Monkey. As to conditions: E2 or OHT for 20 minutes, compared among six pSimer-G plasmids. The procedure:
As shown in the above (Table 1), six kinds of LXXLL motifs as those can be applied to each of […] backbones were prepared, and introduced into […]. Ligand sensitivity of COS-7 cells carrying either one of the six kinds of plasmids was measured (FIG. 8). […] Next, spectrum from the cells carrying […]6 with all wavelengths was measured, provided ligand was present and absent (FIG. 9).

Where [8] appears, read: [variation of luminescence intensity at 540 nm]/[variation at 610 nm], COS-7 cells, pSimer-R2 + pSimer-G6, 20 minutes stimulation.
Setting [9] is: [variation of luminescence intensity at 540 nm]/[variation at 610 nm], COS-7 cells, pSimer-R2 + pSimer-G4, 20 minutes stimulation.

As to 4-hydroxytamoxifen [OHT], the “increase in luminescence intensity” value in test [1] is listed as “remarkable luminescence intensity”. Also, the Estrogenicity score in test [2] is listed as 0.38; in test [4], 0.62. The “concentration at which luminescence intensity peaked” value in test [3] and in test [5] was “about 10^−5 M” each time. Besides, in test [6], the “time of peak luminescence intensity after stimulation” value stood at 15 min.

As for `C[C@]12CC[C@@H]3c4ccc(O)cc4C[C@@H](CCCCCCCCC[S+]([O-])CCCC(F)(F)C(F)(F)F)[C@H]3[C@@H]1CC[C@@H]2O` (stereo partly shown) [ICI, ICI182780], the “increase in luminescence intensity” value in test [1] is listed as “remarkable luminescence intensity”. Moreover, the Estrogenicity score is given as 1.08 in test [2] (setting [8]) and 0.86 in test [4] (setting [9]).

As to `C[C@]12CC[C@H]3[C@@H](CCC4=CC(=O)CC[C@@]43C)[C@@H]1CC[C@@H]2O` [T, testosterone], the Estrogenicity score in test [2] (setting [8]) and in test [4] (setting [9]) was 1.07 in each case.

Turning to `CC(=O)[C@H]1CC[C@H]2[C@@H]3CCC4=CC(=O)CC[C@]4(C)[C@H]3CC[C@]12C` [progesterone], the Estrogenicity score in test [2] (setting [8]) came to 1.06.

Regarding “pSimer-G6: green luminescent probe, Rip140 motif 946 VCNESLLLQKLVNFS 932 (also: within green luminescent probe)”, the “luminescence intensity ratio relative to control (S/N ratio)” value in test [7] is “strongest luminescence intensity ratio relative to control”.
